Laboratory results from patent publication US5430062A, “Stilbene derivatives as anticancer agents” (priority 1993, dated 1995).
pIC50: −log10 of the molar value. Where two headings read alike, the source gives them in different places.

Tests used:
[1] = test system: tubulin; assay: Inhibition of tubulin polymerization (turbidimetry); assay type: biochemical, bovine; details: Hydrochloride
[2] = test system: K-562 leukemia; assay: Cytotoxicity, K-562; assay type: cell-based
Text: (§1) A total of 55 cell lines from the leukemia, non-small cell lung cancer, small cell lung cancer, colon cancer, CNS cancer, melanoma, ovarian cancer, and renal cancer panels were examined.

[3] = test system: OVCAR-4 ovarian cancer; assay: Cytotoxicity, OVCAR-4; assay type: cell-based; details: Homo sapiens, read-out: Log10 GI50, OVCAR-4 (converted)
Text: as §1

[4] = test system: 786-0 renal cancer; assay: Cytotoxicity, 786-0; assay type: cell-based; details: Homo sapiens, read-out: Log10 GI50, 786-0 (converted)
Text: as §1

[5] = test system: SW-620 colon cancer; assay: Cytotoxicity, SW-620; assay type: cell-based; details: Homo sapiens, read-out: Log10 GI50, SW-620 (converted)
Text: as §1

[6] = test system: TK-10 renal cancer; assay: Cytotoxicity, TK-10; assay type: cell-based; details: Homo sapiens, read-out: Log10 GI50, TK-10 (converted)
Text: as §1

[7] = test system: NCI-H460 non-small cell lung cancer; assay: Cytotoxicity, NCI-H460; assay type: cell-based; details: Homo sapiens, read-out: Log10 GI50, NCI-H460 (converted)
Text: as §1

[8] = test system: HCT-15 colon cancer; assay: Cytotoxicity, HCT-15; assay type: cell-based; details: Homo sapiens, read-out: Log10 GI50, HCT-15 (converted)
Text: as §1

[9] = test system: HOP-62 non-small cell lung cancer; assay: Cytotoxicity, HOP-62; assay type: cell-based; details: Homo sapiens, read-out: Log10 GI50, HOP-62 (converted)
Text: as §1

[10] = test system: XF498 CNS cancer; assay: Cytotoxicity, XF498; assay type: cell-based; details: Homo sapiens, read-out: Log10 GI50, XF498 (converted)
Text: as §1

[11] = test system: KM20L2 colon cancer; assay: Cytotoxicity, KM20L2; assay type: cell-based; details: Homo sapiens, KM-20L2; read-out: Log10 GI50, KM20L2 (converted)
Text: as §1

[12] = test system: A549/ATCC non-small cell lung cancer; assay: Cytotoxicity, A549/ATCC; assay type: cell-based; details: Homo sapiens, read-out: Log10 GI50, A549/ATCC (converted)
Text: as §1

[13] = test system: NCI-H322M non-small cell lung cancer; assay: Cytotoxicity, NCI-H322M; assay type: cell-based; details: Homo sapiens, read-out: Log10 GI50, NCI-H322M (converted)
Text: as §1

[14] = test system: UO-31 renal cancer; assay: Cytotoxicity, UO-31; assay type: cell-based; details: Homo sapiens, read-out: Log10 GI50, UO-31 (converted)
Text: as §1

[15] = test system: SNB-75 CNS cancer; assay: Cytotoxicity, SNB-75; assay type: cell-based; details: Homo sapiens, read-out: Log10 GI50, SNB-75 (converted)
Text: as §1

[16] = test system: COLO 205 colon cancer; assay: Cytotoxicity, COLO 205
[17] = test system: M14 melanoma; assay: Cytotoxicity, M14; details: read-out: cytotoxicity GI50, M14, 50% growth inhibition, average of two determinations, 8640 min, Hydrochloride
[18] = test system: LXFL 529 non-small cell lung cancer; assay: Cytotoxicity, LXFL 529; assay type: cell-based; details: Homo sapiens, read-out: Log10 GI50, LXFL 529 (converted)
Text: as §1

[19] = test system: EKCK non-small cell lung cancer; assay: Cytotoxicity, EKCK; assay type: cell-based; details: read-out: Log10 GI50, EKCK (converted)
Text: as §1

[20] = test system: IGROVI ovarian cancer; assay: Cytotoxicity, IGROVI; assay type: cell-based; details: read-out: Log10 GI50, IGROVI (converted)
Text: as §1

[21] = test system: HL-60 (TB) leukemia; assay: Cytotoxicity, HL-60(TB) leukemia; details: read-out: cytotoxicity GI50, HL-60(TB); 50% growth inhibition; average of two determinations; 8640 min; Hydrochloride, 8640 min
[22] = test system: OVCAR-8 ovarian cancer; assay: Cytotoxicity, OVCAR-8; assay type: cell-based; details: Homo sapiens, read-out: Log10 GI50, OVCAR-8 (converted)
Text: as §1

[23] = test system: MOLT-4 leukemia; assay: Cytotoxicity, MOLT-4; assay type: cell-based; details: Homo sapiens, read-out: Log10 GI50, MOLT-4 (converted)
Text: as §1

[24] = test system: DLD-1 colon cancer; assay: Cytotoxicity, DLD-1; assay type: cell-based; details: Homo sapiens, read-out: Log10 GI50, DLD-1 (converted)
Text: as §1

[25] = test system: U251 CNS cancer; assay: Cytotoxicity, U251; assay type: cell-based; details: Homo sapiens, U-251; read-out: Log10 GI50, U251 (converted)
Text: as §1

[26] = test system: MALME-3M melanoma; assay: Cytotoxicity, MALME-3M; assay type: cell-based; details: Homo sapiens, read-out: Log10 GI50, MALME-3M (converted)
Text: as §1

[27] = test system: SK-OV-3 ovarian cancer; assay: Cytotoxicity, SK-OV-3; assay type: cell-based; details: Homo sapiens, read-out: Log10 GI50, SK-OV-3 (converted)
Text: as §1

[28] = test system: DMS114 small cell lung cancer; assay: Cytotoxicity, DMS114; assay type: cell-based; details: Homo sapiens, DMS-114; read-out: Log10 GI50, DMS114 (converted)
Text: as §1

[29] = test system: OVCAR-5 ovarian cancer; assay: Cytotoxicity, OVCAR-5; assay type: cell-based; details: Homo sapiens, read-out: Log10 GI50, OVCAR-5 (converted)
Text: as §1

[30] = Water solubility; assay type: physicochemical
[31] = test system: SN12C renal cancer; assay: Cytotoxicity, SN12C; assay type: cell-based; details: Homo sapiens, read-out: Log10 GI50, SN12C (converted)
Text: as §1

[32] = test system: NCI-H23 non-small cell lung cancer; assay: Cytotoxicity, NCI-H23; assay type: cell-based; details: Homo sapiens, read-out: Log10 GI50, NCI-H23 (converted)
Text: as §1

[33] = test system: SF-539 CNS cancer; assay: Cytotoxicity, SF-539; assay type: cell-based; details: Homo sapiens, read-out: Log10 GI50, SF-539 (converted)
Text: as §1

COc1cc(CNc2ccc(C)cc2)cc(OC)c1OC.Cl [110a, 4-Methyl-N-(3,4,5-trimethoxybenzyl)aniline Hydrochloride]
pIC50 ([1]; Table X, different glutamate preparation (1M monosodium glutamate and GTP), read-out: inhibn of tubulin polymn IC50 (±SD)): 5.46 | pIC50 ([1]; benzylanilines, Table X series, read-out: tubulin polymerization IC50): 5.46 | GI50 ([2]; Homo sapiens, K562, read-out: Log10 GI50, K-562 (converted)): < 100 nM | Log10 GI50, K-562 ([2]; Hydrochloride): -7.00 | GI50 [3]: 21400 nM | GI50 [4]: 324 nM | GI50 [5]: 110 nM | GI50 [6]: > 100000 nM | GI50 [7]: 214 nM | GI50 [8]: 245 nM | GI50 [9]: 282 nM | GI50 [10]: 468 nM | GI50 [11]: 251 nM | GI50 [12]: 513 nM | GI50 [13]: 501 nM | GI50 [14]: 832 nM | GI50 [15]: 389 nM | Log10 GI50, COLO 205 [16]: -6.67 | GI50 ([16]; read-out: cytotoxicity GI50, COLO 205, 50% growth inhibition, average of two determinations, 8640 min, Hydrochloride, 8640 min): 219 nM | GI50 [17]: 292 nM | GI50 [18]: 631 nM | GI50 [19]: 741 nM | GI50 [20]: 708 nM | GI50 [21]: 72.2 nM | GI50 [22]: 759 nM | GI50 [23]: 427 nM | GI50 [24]: 575 nM | GI50 [25]: 331 nM | GI50 [26]: 468 nM | GI50 [27]: 269 nM | GI50 [28]: 427 nM | GI50 [29]: 1350 nM | water solubility (in words) [30]: water soluble | GI50 [31]: 851 nM | GI50 [32]: 407 nM | GI50 [33]: 316 nM
